Values after ≈ are worked out from the molar mass of the structure shown. Where two headings read alike, the source gives them in different places.
What was measured:
[1] = test system: Staphylococcus aureus FDA 209P; assay: MIC, broth dilution method; type: cell-based; details: Staphylococcus aureus, FDA209P; Table 7; no unit in the head; read-out: Minimum inhibitory concentration
[2] = test system: Diplococcus pneumoniae Type III; assay: MIC, broth dilution method; type: cell-based; details: Streptococcus pneumoniae, 20 h; Table 5; 10% horse blood supplemented into the medium; read-out: Minimum inhibitory concentration
[3] = test system: Staphylococcus aureus FDA 209P; assay: MIC, broth dilution method; type: cell-based; details: FDA209P, Table 5, 35° C. 20 hours, read-out: Minimum inhibitory concentration
[4] = biological target: T1, Exo-penicillinase of Bacillus licheniformis 749/C (ATCC 25972) (Bacillus licheniformis, UniProt P00808); assay: Susceptibility to beta-lactamase as enzymic substrate; type: biochemical; details: 15 minutes, 30° C., PS-6 3.3 μg/ml, optical density at 301 nm
T1 construct: made in house; host or cells: Bacillus licheniformis 749/C (ATCC 25972)
T1 sequence (P00808 43-307): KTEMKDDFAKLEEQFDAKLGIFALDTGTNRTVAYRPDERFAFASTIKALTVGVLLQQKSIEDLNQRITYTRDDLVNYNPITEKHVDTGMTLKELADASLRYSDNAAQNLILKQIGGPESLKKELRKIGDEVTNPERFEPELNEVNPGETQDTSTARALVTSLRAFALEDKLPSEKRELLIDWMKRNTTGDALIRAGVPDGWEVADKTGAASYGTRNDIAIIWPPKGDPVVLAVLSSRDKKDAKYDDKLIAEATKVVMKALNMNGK
Procedure: (a) Exo-penicillinase of Bacillus licheniformis 749/C (ATCC 25972). Purified by cephalexin-Sepharose 4B (Pharmacia Fine Chemicals AB) affinity column chromatography. The potency of this enzyme preparation was 16,600 units/ml. when the hydrolysis of potassium penicillin G was measured by iodometry at 30° C. in M/10, pH 6.8, phosphate buffer. One unit of penicillinase means the amount of enzyme that can hydrolyze 1 micromole of penicillin G for 60 minutes at 30° C. with a pH 6.8.
Time course of the hydrolysis was traced at 30° C. by determining the decrease in optical density at 301 nm which corresponds specifically to the concentration of antibiotic PS-6. As described in Japanese Patent Application No. 94651/77, the antibiotic PS-5 sodium salt preparation gave a E1 cm^1% value of 267.5 at the λmax of 301 nm. If this preparation contained no water of crystallization, its epsilon value would be 8560.
As 5% of the initial optical density of antibiotic PS-5 at 301 nm remained even after the complete decomposition with hydroxylamine or beta-lactamase, the differential optical density of this substrate at 301 nm was supposed to be Δε=8132. This was supposed to be applicable to the antibiotic PS-6, and the following calculation was carried out.
(a) Exo-penicillinase of Bacillus licheniformis 749/C.

[5] = test system: Staphylococcus aureus Rassell; assay: MIC, broth dilution method; details: 20 h, read-out: Minimum inhibitory concentration
[6] = test system: Enterobacter sp. E-8; assay: MIC, broth dilution method; details: SP.E8, 20 h, read-out: Minimum inhibitory concentration
[7] = test system: Proteus rettgeri P-7; assay: MIC, broth dilution method; details: Providencia rettgeri, P7, 20 h, read-out: Minimum inhibitory concentration
[8] = test system: Proteus mirabilis P-6; assay: MIC, broth dilution method; details: P6, 20 h, read-out: Minimum inhibitory concentration

Row | SMILES | MIC [1] [µg/mL] | MIC [2] [µg/mL] | MIC [3] [µg/mL] | Hydrolysis by the beta-lactamase [4] | MIC [5] [µg/mL] | MIC [6] [µg/mL] | MIC [7] [µg/mL] | MIC [8] [µg/mL]
1 | CCC1C(=O)N2C(C(=O)O)=C(SC=CNC(C)=O)CC12 (centres unmarked) [Antibiotic PS-7] | < 0.19 |  |  |  |  |  |  | 
2 | CC(=O)NCCSC1=C(C(=O)O)N2C(=O)C(C(C)C)C2C1 (centres unmarked) [Antibiotic PS-6] |  | 0.17 (≈ 0.544 µM) | 0.33 (≈ 1.06 µM) | without a substantial hydrolysis | 1.34 (≈ 4.29 µM) | 12.5 (≈ 40 µM) | 6.25 (≈ 20 µM) | 12.5 (≈ 40 µM)

Source: patent publication US4368203A, “Antibiotics and derivatives thereof having β-lactamase inhibitory activity and production thereof” (priority 1977, dated 1983)
